Results published in ChEMBL document CHEMBL1201862, “PubChem BioAssay data set” (2004).
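Five compound concentrations were applied to cells in 96-well plates for 48 hours; endpoints were derived by simple linear interpolation of the resulting dose-response curve. At the GI50, growth is halved.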 The source made the active and inactive calls. Rule as the data show it: active = GI50 up to about 1.1 µM and inactive = higher.

Columns and labels:
Experiment in all cases: growth of human tumour cells (NCI), 48 h
A549 = test system: A549
CCRF-CEM = test system: CCRF-CEM
DU-145 = test system: DU-145
EKVX = test system: EKVX
HCT-15 = test system: HCT-15
HOP-92 = test system: HOP-92
HT-29 = test system: HT-29
LOX IMVI = test system: LOX IMVI
MDA-MB-435 = test system: MDA-MB-435
MOLT-4 = test system: MOLT-4
OVCAR-5 = test system: OVCAR-5
RXF 393 = test system: RXF 393
SF-295 = test system: SF-295
SK-MEL-2 = test system: SK-MEL-2
SN12C = test system: SN12C
T47D = test system: T47D
TK-10 = test system: TK-10
UACC-62 = test system: UACC-62
NCI-H460 = test system: NCI-H460
HL-60 = test system: HL-60

**Q.** For `Cc1ccc(C2SCC(=O)N2NC(=O)c2ccncc2)s1` (stereo not given), which GI50 (A549) is on record?
**A.** > 100 µM (inactive)

**Q.** And the GI50 (CCRF-CEM)?
**A.** > 100 µM (inactive)

**Q.** What about the GI50 (DU-145) of the same compound?
**A.** > 100 µM (inactive)

**Q.** What about the GI50 (EKVX) of the same compound?
**A.** > 100 µM (inactive)

**Q.** What about the GI50 (HCT-15) of the same compound?
**A.** > 100 µM

**Q.** What about the GI50 (HOP-92) of the same compound?
**A.** > 100 µM (inactive)

**Q.** And the GI50 (HT-29)?
**A.** > 100 µM (inactive)

**Q.** What about the GI50 (LOX IMVI) of the same compound?
**A.** > 100 µM (inactive)

**Q.** What about the GI50 (MDA-MB-435) of the same compound?
**A.** > 100 µM (inactive)

**Q.** And the GI50 (MOLT-4)?
**A.** > 100 µM (inactive)

**Q.** What about the GI50 (OVCAR-5) of the same compound?
**A.** > 100 µM (inactive)

**Q.** And the GI50 (RXF 393)?
**A.** > 100 µM (inactive)

**Q.** What about the GI50 (SF-295) of the same compound?
**A.** > 100 µM (inactive)

**Q.** What about the GI50 (SK-MEL-2) of the same compound?
**A.** > 100 µM (inactive)

**Q.** What about the GI50 (SN12C) of the same compound?
**A.** > 100 µM (inactive)

**Q.** And the GI50 (T47D)?
**A.** > 100 µM (inactive)

**Q.** What about the GI50 (TK-10) of the same compound?
**A.** > 100 µM (inactive)

**Q.** What about the GI50 (UACC-62) of the same compound?
**A.** > 100 µM (inactive)

**Q.** Which GI50 (A549) does the source give for `COC1(OC)C2(Cl)CCC1(Cl)C(OC(C)=O)C2` (stereo not given) here?
**A.** > 100 µM (inactive)

**Q.** And the GI50 (CCRF-CEM)?
**A.** > 100 µM (inactive)

**Q.** And the GI50 (DU-145)?
**A.** > 100 µM (inactive)

**Q.** What about the GI50 (EKVX) of the same compound?
**A.** > 100 µM (inactive)

**Q.** And the GI50 (HCT-15)?
**A.** > 100 µM

**Q.** What about the GI50 (HOP-92) of the same compound?
**A.** > 100 µM (inactive)

**Q.** And the GI50 (HT-29)?
**A.** > 100 µM (inactive)

**Q.** What about the GI50 (LOX IMVI) of the same compound?
**A.** > 100 µM (inactive)

**Q.** And the GI50 (MDA-MB-435)?
**A.** > 100 µM (inactive)

**Q.** What about the GI50 (MOLT-4) of the same compound?
**A.** > 100 µM (inactive)

**Q.** What about the GI50 (NCI-H460) of the same compound?
**A.** > 100 µM (inactive)

**Q.** And the GI50 (OVCAR-5)?
**A.** > 100 µM (inactive)

**Q.** What about the GI50 (RXF 393) of the same compound?
**A.** > 100 µM (inactive)

**Q.** What about the GI50 (SF-295) of the same compound?
**A.** > 100 µM (inactive)

**Q.** And the GI50 (SK-MEL-2)?
**A.** > 100 µM (inactive)

**Q.** And the GI50 (SN12C)?
**A.** > 100 µM (inactive)

**Q.** And the GI50 (T47D)?
**A.** > 100 µM (inactive)

**Q.** And the GI50 (TK-10)?
**A.** > 100 µM (inactive)

**Q.** What about the GI50 (UACC-62) of the same compound?
**A.** > 90.2 µM (inactive)

**Q.** For `COc1cc(C(=O)O)c([N+](=O)[O-])c(OC)c1OC`, which GI50 (A549) is on record?
**A.** > 100 µM (inactive)

**Q.** And the GI50 (DU-145)?
**A.** > 100 µM (inactive)

**Q.** And the GI50 (EKVX)?
**A.** > 100 µM (inactive)

**Q.** What about the GI50 (HCT-15) of the same compound?
**A.** > 100 µM

**Q.** And the GI50 (HOP-92)?
**A.** > 100 µM (inactive)

**Q.** What about the GI50 (HT-29) of the same compound?
**A.** > 100 µM (inactive)

**Q.** And the GI50 (LOX IMVI)?
**A.** > 100 µM (inactive)

**Q.** And the GI50 (MDA-MB-435)?
**A.** > 100 µM (inactive)

**Q.** And the GI50 (MOLT-4)?
**A.** > 100 µM (inactive)

**Q.** And the GI50 (NCI-H460)?
**A.** > 100 µM (inactive)

**Q.** What about the GI50 (OVCAR-5) of the same compound?
**A.** 63.2 µM (inactive)

**Q.** And the GI50 (RXF 393)?
**A.** > 100 µM (inactive)

**Q.** And the GI50 (SF-295)?
**A.** > 100 µM (inactive)

**Q.** And the GI50 (SK-MEL-2)?
**A.** > 100 µM (inactive)

**Q.** And the GI50 (SN12C)?
**A.** > 100 µM (inactive)

**Q.** What about the GI50 (T47D) of the same compound?
**A.** > 100 µM (inactive)

**Q.** And the GI50 (TK-10)?
**A.** > 100 µM (inactive)

**Q.** What about the GI50 (UACC-62) of the same compound?
**A.** > 100 µM (inactive)

**Q.** Which results are given for `CC(CCC(=O)O)(c1ccc(O)cc1)c1ccc(O)cc1`?
**A.** GI50 (A549): > 100 µM (inactive); GI50 (DU-145): > 100 µM (inactive); GI50 (EKVX): > 100 µM (inactive); GI50 (HCT-15): > 100 µM; GI50 (HOP-92): > 100 µM (inactive); GI50 (HT-29): > 100 µM (inactive); GI50 (LOX IMVI): > 100 µM (inactive); GI50 (MDA-MB-435): > 100 µM (inactive); GI50 (MOLT-4): > 100 µM (inactive); GI50 (NCI-H460): > 100 µM (inactive); GI50 (OVCAR-5): > 100 µM (inactive); GI50 (RXF 393): > 100 µM (inactive); GI50 (SF-295): > 100 µM (inactive); GI50 (SK-MEL-2): > 100 µM (inactive); GI50 (SN12C): > 100 µM (inactive); GI50 (T47D): > 100 µM (inactive); GI50 (TK-10): > 100 µM (inactive); GI50 (UACC-62): > 100 µM (inactive)

**Q.** Which results are given for `COC(C)(C)C(O)C(O)C[C@H](C)C1CC=C2C1(C)CCC1[C@@]3(C)CCC(OC(C)=O)C(C)(C)C3CC(OC3OC(COC(C)=O)C(O)C(O)C3O)[C@@]21C` (stereo not given in full)?
**A.** GI50 (A549): 4.13 µM (inactive); GI50 (CCRF-CEM): 3 µM (inactive); GI50 (DU-145): 7.1 µM (inactive); GI50 (EKVX): 4.79 µM (inactive); GI50 (HCT-15): 3.85 µM; GI50 (HL-60): 2.59 µM (inactive); GI50 (HOP-92): 3.6 µM (inactive); GI50 (HT-29): 3.41 µM (inactive); GI50 (LOX IMVI): 2.32 µM (inactive); GI50 (MDA-MB-435): 3.24 µM (inactive); GI50 (MOLT-4): 1.93 µM (inactive); GI50 (NCI-H460): 3.24 µM (inactive); GI50 (OVCAR-5): 2.88 µM (inactive); GI50 (RXF 393): 3.85 µM (inactive); GI50 (SF-295): 3.03 µM (inactive); GI50 (SN12C): 4.2 µM (inactive); GI50 (T47D): 5.13 µM (inactive); GI50 (TK-10): 4.53 µM (inactive); GI50 (UACC-62): 2.76 µM (inactive)

**Q.** Which results are given for `O=C1CC(CC(OCc2ccccc2)C(COCc2ccccc2)OCc2ccccc2)CC(=O)N1` (stereo not given)?
**A.** GI50 (A549): 27.4 µM (inactive); GI50 (CCRF-CEM): 37.1 µM (inactive); GI50 (DU-145): 69.3 µM (inactive); GI50 (EKVX): 19.7 µM (inactive); GI50 (HCT-15): 31.9 µM; GI50 (HL-60): 28 µM (inactive); GI50 (HOP-92): 39.2 µM (inactive); GI50 (HT-29): 24.7 µM (inactive); GI50 (LOX IMVI): 34.3 µM (inactive); GI50 (MDA-MB-435): 29.6 µM (inactive); GI50 (MOLT-4): 24.3 µM (inactive); GI50 (NCI-H460): 32.4 µM (inactive); GI50 (OVCAR-5): 44.2 µM (inactive); GI50 (RXF 393): 30.1 µM (inactive); GI50 (SF-295): 34.9 µM (inactive); GI50 (SN12C): 44.6 µM (inactive); GI50 (T47D): 27.9 µM (inactive)

**Q.** For `CC1=NN(c2nc(N)nc(-c3cc4ccccc4oc3=N)n2)C(C)(C)C1`, which GI50 (A549) is on record?
**A.** 19.5 µM (inactive)

**Q.** What about the GI50 (CCRF-CEM) of the same compound?
**A.** 20.7 µM (inactive)

**Q.** What about the GI50 (DU-145) of the same compound?
**A.** 20.9 µM (inactive)

**Q.** And the GI50 (EKVX)?
**A.** 14.7 µM (inactive)

**Q.** And the GI50 (HCT-15)?
**A.** 16.1 µM

**Q.** What about the GI50 (HL-60) of the same compound?
**A.** 18.2 µM (inactive)

**Q.** And the GI50 (HOP-92)?
**A.** 22.9 µM (inactive)

**Q.** And the GI50 (HT-29)?
**A.** 19.7 µM (inactive)

**Q.** What about the GI50 (MDA-MB-435) of the same compound?
**A.** 19.7 µM (inactive)

**Q.** And the GI50 (MOLT-4)?
**A.** 12.9 µM (inactive)

**Q.** What about the GI50 (NCI-H460) of the same compound?
**A.** 17.3 µM (inactive)

**Q.** And the GI50 (OVCAR-5)?
**A.** 24.9 µM (inactive)

**Q.** And the GI50 (RXF 393)?
**A.** 20.7 µM (inactive)

**Q.** And the GI50 (SF-295)?
**A.** 18.2 µM (inactive)

**Q.** And the GI50 (SK-MEL-2)?
**A.** 20 µM (inactive)

**Q.** And the GI50 (SN12C)?
**A.** 19.5 µM (inactive)

**Q.** And the GI50 (T47D)?
**A.** 16.1 µM (inactive)

**Q.** And the GI50 (TK-10)?
**A.** 23.4 µM (inactive)

**Q.** And the GI50 (UACC-62)?
**A.** 16.2 µM (inactive)

**Q.** Which results are given for `Cc1ccc(/C(C#N)=C/c2cccc([N+](=O)[O-])c2)cc1`?
**A.** GI50 (A549): > 100 µM (inactive); GI50 (DU-145): 98.6 µM (inactive); GI50 (EKVX): 29.5 µM (inactive); GI50 (HCT-15): > 100 µM; GI50 (HOP-92): 32.2 µM (inactive); GI50 (HT-29): > 100 µM (inactive); GI50 (LOX IMVI): > 100 µM (inactive); GI50 (MDA-MB-435): > 100 µM (inactive); GI50 (NCI-H460): > 100 µM (inactive); GI50 (OVCAR-5): > 100 µM (inactive); GI50 (RXF 393): 19.3 µM (inactive); GI50 (SF-295): 24.4 µM (inactive); GI50 (SK-MEL-2): 51.9 µM (inactive); GI50 (SN12C): > 100 µM (inactive); GI50 (T47D): > 100 µM (inactive); GI50 (TK-10): 92.5 µM (inactive); GI50 (UACC-62): 71.1 µM (inactive)
